According to the supplement of paper PMC6045584:
± gives the standard deviation of the averaged measurements.

Key:
[1] = compound: COc1cc2nccc(Oc3ccc(NC(=O)NC4CC4)c(Cl)c3)c2cc1C(N)=O [LENVATINIB]; assay: surviving fraction relative to DMSO-only wells; higher = less growth inhibition; settings: exposure time: 5 days
Summary of the method: (§1)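 Viability was determined by CellTiter-Glo luminescence, expressed as surviving fraction normalised to the median of DMSO-only wells. The cells were log-phase tumour cell lines seeded at 250–500 per well in 384-well plates and, after 24 hours, exposed continuously for five days to inhibitors at 0.5, 1, 5, 10, 50, 100, 500 and 1000 nM. Three screens per line were run, keeping only lines with replicate Pearson r >0.7 and median Z' >0.3.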

[2] = compound: Cc1ccc(NC(=O)c2ccc(CN3CCN(C)CC3)cc2)cc1Nc1nccc(-c2cccnc2)n1 [IMATINIB]; assay: as above; settings: exposure time: 5 days
Summary of the method: as §1

Row | Test System | surviving fraction ([1]; 0.5 nM) | surviving fraction ([1]; 1 nM) | surviving fraction ([1]; 5 nM) | surviving fraction ([1]; 10 nM) | surviving fraction ([1]; 50 nM) | surviving fraction ([1]; 100 nM) | surviving fraction ([1]; 500 nM) | surviving fraction ([1]; 1000 nM) | surviving fraction ([2]; 0.5 nM) | surviving fraction ([2]; 1 nM) | surviving fraction ([2]; 5 nM) | surviving fraction ([2]; 10 nM) | surviving fraction ([2]; 50 nM) | surviving fraction ([2]; 100 nM) | surviving fraction ([2]; 1000 nM) | surviving fraction ([2]; 500 nM)
1 | KPD BONE | 1 ± 0.019 | 0.99 ± 0.067 | 1.01 ± 0.078 | 1.01 ± 0.093 | 1 ± 0.11 | 1.02 ± 0.11 | 0.948 ± 0.03 | 0.814 ± 0.037 | 1.077 ± 0.008 | 0.983 ± 0.068 | 1.11 ± 0.043 | 1.1 ± 0.082 | 1.16 ± 0.067 | 1.05 ± 0.097 | 0.99 ± 0.023 | –
2 | LM7 BONE | 0.974 ± 0.11 | 0.951 ± 0.066 | 1.03 ± 0.074 | 0.973 ± 0.086 | 1.07 ± 0.12 | 1.03 ± 0.041 | 0.939 ± 0.022 | 0.952 ± 0.11 | – | – | – | 1.11 ± 0.082 | 1.19 ± 0.074 | 1.17 ± 0.063 | 0.959 ± 0.11 | 1.04 ± 0.016
3 | LNCAP PROSTATE | 1.16 ± 0.031 | 0.973 ± 0.044 | 0.904 ± 0.17 | 0.896 ± 0.1 | 1.02 ± 0.13 | 0.924 ± 0.16 | 0.909 ± 0.12 | 0.533 ± 0.073 | – | 1.1 ± 0.1 | 0.968 ± 0.068 | – | 0.967 ± 0.14 | 0.986 ± 0.049 | – | –
4 | MCF7 BREAST | 0.954 ± 0.061 | 0.903 ± 0.056 | 0.954 ± 0.059 | 0.931 ± 0.076 | 0.971 ± 0.034 | 0.978 ± 0.11 | 0.942 ± 0.03 | 0.934 ± 0.073 | 0.988 ± 0.064 | – | 0.97 ± 0.03 | 0.955 ± 0.062 | 1.04 ± 0.018 | 1.01 ± 0.033 | 0.986 ± 0.014 | 1.05 ± 0.043
5 | MDAMB134 BREAST | 1.12 ± 0.079 | 1.08 ± 0.044 | 1.16 ± 0.069 | 1.09 ± 0.011 | 1.29 ± 0.13 | 1.32 ± 0.14 | 0.972 ± 0.15 | 1.05 ± 0.057 | 0.896 ± 0.08 | – | – | 0.86 ± 0.057 | 1.02 ± 0.093 | 1.11 ± 0.024 | 0.814 ± 0.15 | 0.994 ± 0.17
6 | MDAMB157 BREAST | 0.97 ± 0.13 | 1.03 ± 0.081 | 0.993 ± 0.071 | 1.06 ± 0.11 | 0.934 ± 0.045 | 0.873 ± 0.069 | 0.7437 ± 0.0042 | 0.621 ± 0.045 | – | 1.01 ± 0.028 | 1.02 ± 0.018 | – | – | 0.939 ± 0.021 | 0.855 ± 0.11 | 0.956 ± 0.018
7 | MDAMB231 BREAST | 1.01 ± 0.029 | 1.02 ± 0.025 | 1.03 ± 0.033 | 1.02 ± 0.011 | 0.988 ± 0.012 | 1.02 ± 0.032 | 0.913 ± 0.032 | 0.882 ± 0.025 | 0.9973 ± 0.0088 | 1.03 ± 0.04 | 1.01 ± 0.039 | 1.03 ± 0.022 | 1 ± 0.058 | 1.01 ± 0.027 | 0.96 ± 0.024 | 0.968 ± 0.042
8 | MDAMB361 BREAST | 0.893 ± 0.098 | 0.873 ± 0.034 | 0.959 ± 0.032 | 0.865 ± 0.035 | 0.941 ± 0.08 | 0.978 ± 0.066 | 0.928 ± 0.063 | 0.763 ± 0.063 | 0.927 ± 0.066 | 0.879 ± 0.079 | 0.826 ± 0.018 | 0.878 ± 0.046 | 0.869 ± 0.082 | 0.879 ± 0.081 | 0.827 ± 0.087 | –
9 | MDAMB436 BREAST | 0.949 ± 0.032 | 1.01 ± 0.11 | 0.946 ± 0.04 | 0.976 ± 0.039 | 1.01 ± 0.11 | 0.907 ± 0.015 | 1.04 ± 0.077 | 0.932 ± 0.033 | 1.01 ± 0.078 | 0.984 ± 0.11 | 0.985 ± 0.079 | 0.998 ± 0.093 | 1.04 ± 0.14 | – | – | 1.1 ± 0.12
10 | MDAMB453 BREAST | 1.11 ± 0.035 | 1.11 ± 0.068 | 1.12 ± 0.019 | 1.13 ± 0.043 | 1.12 ± 0.037 | 1.15 ± 0.049 | 0.663 ± 0.016 | 0.52 ± 0.035 | – | 1.1 ± 0.086 | 1.13 ± 0.051 | 1.12 ± 0.1 | 1.18 ± 0.034 | 1.06 ± 0.034 | 1.04 ± 0.011 | 1.082 ± 0.0067
11 | MDAMB468 BREAST | 1.04 ± 0.059 | 1.12 ± 0.047 | 1.11 ± 0.092 | 1.09 ± 0.016 | 1.14 ± 0.086 | 1.1 ± 0.1 | 1.1 ± 0.056 | 1.05 ± 0.05 | 0.997 ± 0.075 | 1.05 ± 0.059 | 1.01 ± 0.02 | 1.06 ± 0.066 | 1.09 ± 0.081 | 1.18 ± 0.032 | 1.06 ± 0.06 | 1.103 ± 0.01
